Where two headings read alike, the source gives them in different places.
Experiments:
[1] = Caco-2 permeability, Method B7; assay type: in vitro ADME, human; details: human; for Papp A→B at 60 min, 10 μM / Papp B→A at 60 min, 10 μM: Caco-2, 10 μM, without P-gp inhibitor; for efflux ratio at 60 min, 10 μM: Caco-2, without P-gp inhibitor, read-out: Efflux ratio Papp B2A/Papp A2B
Text: B7. Determination of Caco-2 Permeability
The Caco-2 cell line, derived from a human colorectal carcinoma, has become an established in vitro model for the prediction of drug absorption across the human intestine. (Sun, D.; Yu, L. X.; Hussain, M. A.; Wall, D. A.; Smith, R. L.; Amidon, G. L. Curr. Opin. Drug Discov. Devel. 2004, 7, 75-85; Bergstrom, C. A. Basic Clin. Pharmacol. Toxicol. 2005, 96, 156-61; Balimane, P. V.; Han, Y. H.; Chong, S. AAPS J. 2006, 8, E1-13; Shah, P.; Jogani, V.; Bagchi, T.; Misra, A. Biotechnol. Prog. 2006, 22, 186-198.) When cultured on semi-permeable membranes, Caco-2 cells differentiate into a highly functionalized epithelial barrier with remarkable morphological and biochemical similarity to the small intestinal columnar epithelium. Fully differentiated cell monolayers can be used to assess the membrane transport properties of novel compounds.
Assays to determine the permeability of compounds of the invention utilizing Caco-2 cells are commercially available, for example NoAb BioDiscoveries (Mississaugua, ON, Canada) and Absorption Systems (Exton, Pa., USA).
Permeability across the Caco-2 cell layer was determined by growing the cells on a membrane placed between two (donor and acceptor) chambers. Drug candidates are typically added to the apical (A) side of the cell layer and their appearance in the basolateral (B) side is measured over incubation time. Permeability in this direction represents intestinal absorption. Permeability may also be determined from the basolateral to the apical side of the Caco-2 cell. […]
Permeability (10 μM) for compounds of the invention in the apical to basolateral and basolateral to apical direction were tested in duplicate. Samples will be collected from the donor and acceptor chambers at the beginning (0 min) and following 60 min of incubation at 37° C. and stored frozen at −70° C. until bioanalysis. Samples for each test compound generated from the Caco-2 permeability assay were further analyzed by LC-MS-MS. The permeability of [^3H]-mannitol and [^3H]-propranolol were determined in parallel as controls.
The permeability coefficient (Papp) of each compound and radiolabeled standard was determined using the following equation: […]
where dQ/dT represents the permeability rate, Ci denotes the initial concentration in the donor compartment, and A represents the surface area of the filter. Ci is determined from the mean concentration of duplicate samples taken prior to addition to the donor compartment. Permeability rates were calculated by plotting the cumulative amount of compound measured in the acceptor compartment over time and determining the slope of the line by linear regression analysis. The duplicate and mean apical to basolateral and basolateral to apical Papp's were reported for each compound and standard. […]

CYP3A4 = CYP3A4 (Homo sapiens, UniProt P08684); assay: Cytochrome P450 inhibition, Method B6 (two substrates); details: read-out: IC50 CYP 3A4
hERG channel = target: T1, hERG channel (Homo sapiens, UniProt Q12809); assay: hERG channel inhibition (whole cell IKr currents, HEK293), Method B16; assay type: cell-based; details: in comparison to vehicle (0.1% DMSO) controls, up to 100 μM
T1 construct: expressed in transfected cells; host or cells: HEK293
Text: B16. hERG Channel Inhibition
Direct interactions of compounds with the hERG channel account for the majority of known cases of cardiotoxicity. […]

CYP2D6 = CYP2D6 (Homo sapiens, UniProt P10635); assay: Cytochrome P450 inhibition, Method B6; details: read-out: IC50 CYP 2D6; Table 4a; dextromethorphan used as substrate
[2] = Table 4b, midazolam used as substrate
[3] = Table 4a, nifedipine used as substrate

CYP3A4, sequence (P08684 whole entry): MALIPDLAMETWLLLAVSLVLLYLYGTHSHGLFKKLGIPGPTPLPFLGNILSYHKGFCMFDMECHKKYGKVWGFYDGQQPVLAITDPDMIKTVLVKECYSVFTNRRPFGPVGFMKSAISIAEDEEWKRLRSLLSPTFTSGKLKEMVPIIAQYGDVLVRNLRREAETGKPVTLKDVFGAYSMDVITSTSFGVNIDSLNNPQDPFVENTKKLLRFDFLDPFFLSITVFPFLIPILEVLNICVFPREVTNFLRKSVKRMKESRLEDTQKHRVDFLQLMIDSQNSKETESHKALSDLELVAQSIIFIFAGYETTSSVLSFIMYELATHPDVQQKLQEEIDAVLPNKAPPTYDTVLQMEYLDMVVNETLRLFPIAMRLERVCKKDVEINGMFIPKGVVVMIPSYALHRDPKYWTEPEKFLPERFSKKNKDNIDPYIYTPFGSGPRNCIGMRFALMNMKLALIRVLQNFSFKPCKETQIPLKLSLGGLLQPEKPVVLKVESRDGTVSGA
T1 sequence (Q12809 whole entry): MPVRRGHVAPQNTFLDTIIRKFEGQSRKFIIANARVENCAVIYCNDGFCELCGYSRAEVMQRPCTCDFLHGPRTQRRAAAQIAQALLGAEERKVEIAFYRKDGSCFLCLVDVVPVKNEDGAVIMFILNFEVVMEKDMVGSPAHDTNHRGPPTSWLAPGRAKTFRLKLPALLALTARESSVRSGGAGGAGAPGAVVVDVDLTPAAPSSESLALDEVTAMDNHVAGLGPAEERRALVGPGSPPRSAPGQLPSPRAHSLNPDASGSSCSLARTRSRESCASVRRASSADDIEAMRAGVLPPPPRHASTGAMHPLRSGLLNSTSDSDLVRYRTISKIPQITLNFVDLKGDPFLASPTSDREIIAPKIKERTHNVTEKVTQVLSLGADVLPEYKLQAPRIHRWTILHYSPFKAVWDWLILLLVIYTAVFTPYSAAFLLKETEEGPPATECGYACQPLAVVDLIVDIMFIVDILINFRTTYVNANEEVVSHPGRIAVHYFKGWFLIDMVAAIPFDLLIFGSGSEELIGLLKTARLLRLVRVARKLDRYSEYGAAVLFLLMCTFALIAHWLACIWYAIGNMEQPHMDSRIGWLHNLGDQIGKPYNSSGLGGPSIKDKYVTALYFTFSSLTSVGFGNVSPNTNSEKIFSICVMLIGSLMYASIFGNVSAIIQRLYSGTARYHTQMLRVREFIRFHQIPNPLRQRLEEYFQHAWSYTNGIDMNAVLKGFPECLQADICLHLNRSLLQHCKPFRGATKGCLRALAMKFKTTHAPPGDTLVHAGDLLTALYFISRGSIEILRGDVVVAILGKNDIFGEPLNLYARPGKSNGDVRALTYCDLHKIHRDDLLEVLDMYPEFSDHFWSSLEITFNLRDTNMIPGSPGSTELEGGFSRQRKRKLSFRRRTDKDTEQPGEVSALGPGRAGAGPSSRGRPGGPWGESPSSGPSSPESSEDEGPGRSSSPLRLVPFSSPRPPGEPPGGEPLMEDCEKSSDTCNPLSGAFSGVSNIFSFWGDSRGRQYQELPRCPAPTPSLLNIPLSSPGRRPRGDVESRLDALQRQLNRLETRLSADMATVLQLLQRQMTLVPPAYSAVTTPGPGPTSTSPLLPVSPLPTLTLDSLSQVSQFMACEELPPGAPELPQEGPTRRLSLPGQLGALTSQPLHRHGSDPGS
CYP2D6, sequence (P10635 whole entry): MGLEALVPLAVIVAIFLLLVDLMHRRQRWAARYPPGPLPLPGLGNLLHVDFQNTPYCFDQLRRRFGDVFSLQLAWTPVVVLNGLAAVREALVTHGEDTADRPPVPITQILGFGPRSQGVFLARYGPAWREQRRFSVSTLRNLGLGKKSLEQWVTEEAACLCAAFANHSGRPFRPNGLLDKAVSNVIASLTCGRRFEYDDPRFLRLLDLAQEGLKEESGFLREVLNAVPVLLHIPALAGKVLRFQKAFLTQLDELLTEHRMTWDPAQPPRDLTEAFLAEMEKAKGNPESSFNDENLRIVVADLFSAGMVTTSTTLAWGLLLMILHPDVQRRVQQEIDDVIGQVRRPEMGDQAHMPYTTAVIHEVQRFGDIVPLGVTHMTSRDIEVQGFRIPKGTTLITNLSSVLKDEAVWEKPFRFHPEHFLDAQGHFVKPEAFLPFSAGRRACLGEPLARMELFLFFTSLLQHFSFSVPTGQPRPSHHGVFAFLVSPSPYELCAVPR

Structure (SMILES)	Papp A→B at 60 min, 10 μM [1] [×10⁻⁶ cm/s]	Papp B→A at 60 min, 10 μM [1] [×10⁻⁶ cm/s]	efflux ratio at 60 min, 10 μM [1]	IC50 (CYP3A4; [2]) [µM]	effect on hERG channel function (hERG channel)	IC50 (CYP2D6) [µM]	IC50 (CYP3A4; [3]) [µM]
CC(C)[C@@H]1NCCOc2ccccc2C[C@H](O)[C@@H](C)NC(=O)[C@@H](Cc2cccc(F)c2)NC(=O)[C@H](C(C)O)N(C)C1=O (stereo partly drawn) [Compound 1503]	0.11	12	109	–	–	–	–
CC[C@@H]1CCc2ccc(F)cc2OCCN[C@@H](C(C)C)C(=O)N(C)[C@@H](C(C)O)C(=O)N[C@H](Cc2c[nH]c3ccccc23)C(=O)N1 (stereo partly drawn) [Compound 1505]	0.091	26.7	299	–	–	–	–
CC(C)[C@@H]1NCCOc2ccccc2C#C[C@@H](C)NC(=O)[C@@H](Cc2ccccc2)NC(=O)[C@H](C(C)O)N(C)C1=O (stereo partly drawn) [Compound 1688]	0.131	41.8	318	–	–	–	–
CC(C)C1NCCOc2cc(F)ccc2C#CCNC(=O)C(Cc2c[nH]c3ccccc23)NC(=O)C(C(C)O)N(C)C1=O (stereo not drawn) [Compound 1693]	–	–	–	2.2	–	–	–
CC(C)[C@@H]1NCCOc2ccccc2C#CCNC(=O)[C@@H](Cc2ccccc2)NC(=O)[C@H](C(C)O)N(C)C1=O (stereo partly drawn) [Compound 1712]	–	–	–	–	no significant effect	–	–
CC(O)[C@H]1C(=O)N[C@H](Cc2c[nH]c3ccccc23)C(=O)N[C@H](C)C#Cc2ccc(F)cc2O[C@H](C)CN[C@@H](C2(C)CC2)C(=O)N1C (stereo partly drawn) [Compound 1720]	–	–	–	1.6	–	–	–
CC(C)[C@@H]1NCC2CCc3cccc(c3O2)CCCNC(=O)[C@@H](Cc2ccccc2)NC(=O)[C@H](C(C)O)N(C)C1=O (stereo partly drawn) [Compound 1777]	–	–	–	–	–	11.8	6
CC(O)[C@H]1C(=O)N[C@H](Cc2ccccc2)C(=O)NCCCc2cccc3c2OC(CC3)CN[C@@H](C2CC2)C(=O)N1C (stereo partly drawn) [Compound 1778]	0.193	32.7	169	–	–	–	–
CC[C@@H]1NCC2CCc3cccc(c3O2)CCCNC(=O)[C@@H](Cc2ccccc2)NC(=O)[C@H](C(C)O)N(C)C1=O (stereo partly drawn) [Compound 1780]	0.099	29.5	297	–	–	–	–
CC(C)[C@@H]1NCCOc2ccccc2C2CCC(C2)NC(=O)[C@@H](Cc2c[nH]c3ccccc23)NC(=O)[C@H](C(C)O)N(C)C1=O (stereo partly drawn) [Compound 1843]	–	–	–	–	–	7.7	6.5
CC(C)[C@@H]1NCCOc2ccccc2C2CCC(C2)NC(=O)[C@@H](Cc2ccccc2)NC(=O)[C@H](C(C)O)N(C)C1=O (stereo partly drawn) [Compound 1848]	0.266	64.2	241	–	no significant effect	–	–
CC(O)[C@H]1C(=O)N[C@H](Cc2ccccc2)C(=O)NCC#Cc2c(F)cccc2OCCN[C@@H](C2(C)CC2)C(=O)N1C (stereo partly drawn) [Compound 1876]	0.097	28	288	–	–	–	–
CC(O)[C@H]1C(=O)N[C@H](Cc2ccccc2)C(=O)NCC#Cc2ccccc2OCCN[C@@H](C2(C)CC2)C(=O)N1C (stereo partly drawn) [Compound 1878]	0.144	21.7	151	–	–	–	–
CC(C)[C@@H]1NCCOc2ccccc2C2CCC(C2)NC(=O)[C@@H](Cc2ccc(F)cc2)NC(=O)[C@H](C(C)O)N(C)C1=O (stereo partly drawn) [Compound 1903]	0.291	58.9	203	–	–	–	–
CC(O)[C@H]1C(=O)N[C@H](Cc2ccccc2)C(=O)NCC#Cc2ccc(F)cc2OCCN[C@@H](C2(C)CC2)C(=O)N1C (stereo partly drawn) [Compound 1918]	0.112	42.6	380	–	–	–	–
CC(C)[C@@H]1NCCOc2cccc(F)c2C#CCNC(=O)[C@@H](Cc2ccccc2)NC(=O)[C@H](C(C)O)N(C)C1=O (stereo partly drawn) [Compound 1929]	0.171	36.9	216	–	no significant effect	–	–
